≈ marks a conversion by molar mass, not a printed value. *1 amine or outer side, *2 acyl side, *3 side chain or, on linkers, in order; H or OH if unused. Where a SMILES comes first, the peptide text is derived from it. Bridges are numbered along the chain shown (N, C = ends). [ ]: non-standard residue; d: D form. ξ: configuration not given here. X2 = CCCCCCCCCCCC(CC(=O)[*:1])O[*:2]; ξAsp(3ξ-OH) = NC(C(=O)O)C(O)C(=O)O; X1 = O=C(C1C(O)CCN1[*:1])[*:2]
How the values were obtained:
Assay type in all cases: cell-based
[1] = system: Veillonella parvula A20010; assay: MIC, serial two-fold dilution method (anaerobic); settings: Veillonella parvula A20010, GAM agar medium, inoculum 10^7-10^8
Micrococcus flavus D-12 = assay: MIC, serial two-fold dilution method (aerobic); settings: Micrococcus flavus D-12, Mueller-Hinton agar, inoculum 10^4
[2] = system: Staphylococcus aureus A20394; assay: MIC, serial two-fold dilution method (aerobic); settings: Staphylococcus aureus A20394, Mueller-Hinton agar, inoculum 10^4
[3] = system: Bacteroides fragilis A20929; assay: MIC, serial two-fold dilution method (anaerobic); settings: Bacteroides fragilis A20929, GAM agar medium, inoculum 10^7-10^8
[4] = system: Staphylococcus aureus #193; assay: MIC, serial two-fold dilution method (aerobic); settings: Staphylococcus aureus #193, Mueller-Hinton agar, inoculum 10^4
[5] = system: Fusobacterium necrophorum A20013; assay: MIC, serial two-fold dilution method (anaerobic); settings: Fusobacterium necrophorum A20013, GAM agar medium, inoculum 10^7-10^8
[6] = system: Staphylococcus aureus A9601; assay: MIC, serial two-fold dilution method (aerobic); settings: Staphylococcus aureus A9601, Mueller-Hinton agar, inoculum 10^4
Escherichia coli NIHJ = assay: MIC, serial two-fold dilution method (aerobic); settings: Escherichia coli NIHJ, Mueller-Hinton agar, inoculum 10^4
[7] = system: Peptostreptococcus anaerobius A21905; assay: MIC, serial two-fold dilution method (anaerobic); settings: Peptostreptococcus anaerobius A21905, GAM agar medium, inoculum 10^7-10^8
[8] = system: Bacteroides fragilis A20928-1; assay: MIC, serial two-fold dilution method (anaerobic); settings: Bacteroides fragilis A20928-1, GAM agar medium, inoculum 10^7-10^8
[9] = system: Staphylococcus aureus Smith; assay: MIC, serial two-fold dilution method (aerobic); settings: Staphylococcus aureus Smith, Mueller-Hinton agar, inoculum 10^4
[10] = system: Bacillus anthracis IID-115; assay: microbe, parasite or virus in culture
[11] = system: Peptostreptococcus intermedius A21881; assay: MIC, serial two-fold dilution method (anaerobic); settings: Peptostreptococcus intermedius A21881, GAM agar medium, inoculum 10^7-10^8
[12] = system: Clostridium perfringens A9635; assay: microbe, parasite or virus in culture
[13] = system: Clostridium septicum A21869; assay: MIC, serial two-fold dilution method (anaerobic); settings: Clostridium septicum A21869, GAM agar medium, inoculum 10^7-10^8
[14] = system: Clostridium difficile A21675; assay: MIC, serial two-fold dilution method (anaerobic); settings: Clostridium difficile A21675, GAM agar medium, inoculum 10^7-10^8
[15] = system: Clostridium chauvoei A9561; assay: MIC, serial two-fold dilution method (anaerobic); settings: Clostridium chauvoei A9561, GAM agar medium, inoculum 10^7-10^8
[16] = system: Clostridium difficile A21972; assay: MIC, serial two-fold dilution method (anaerobic); settings: Clostridium difficile A21972, GAM agar medium, inoculum 10^7-10^8
[17] = system: Bacteroides ovatus A22400; assay: MIC, serial two-fold dilution method (anaerobic); settings: Bacteroides ovatus A22400, GAM agar medium, inoculum 10^7-10^8
[18] = system: Staphylococcus aureus A20610; assay: MIC, serial two-fold dilution method (aerobic); settings: Staphylococcus aureus A20610, Mueller-Hinton agar, inoculum 10^4
Proteus vulgaris A9436 = assay: MIC, serial two-fold dilution method (aerobic); settings: Proteus vulgaris A9436, Mueller-Hinton agar, inoculum 10^4
[19] = system: Propionibacterium acnes A22650; assay: MIC, serial two-fold dilution method (anaerobic); settings: Propionibacterium acnes A22650, GAM agar medium, inoculum 10^7-10^8
[20] = system: Klebsiella pneumoniae D-11; assay: MIC, serial two-fold dilution method (aerobic); settings: Klebsiella pneumoniae D-11, Mueller-Hinton agar, inoculum 10^4
[21] = system: Clostridium acidiurici A9560; assay: MIC, serial two-fold dilution method (anaerobic); settings: Clostridium acidiurici A9560, GAM agar medium, inoculum 10^7-10^8
Proteus mirabilis A9554 = assay: MIC, serial two-fold dilution method (aerobic); settings: Proteus mirabilis A9554, Mueller-Hinton agar, inoculum 10^4
[22] = system: Peptococcus magnas A21676; assay: MIC, serial two-fold dilution method (anaerobic); settings: Peptococcus magnas A21676, GAM agar medium, inoculum 10^7-10^8
[23] = system: Bacteroides fragilis A22053; assay: MIC, serial two-fold dilution method (anaerobic); settings: Bacteroides fragilis A22053, GAM agar medium, inoculum 10^7-10^8
[24] = read-out: minimum inhibitory concentration (MIC)
[25] = Clostridioides difficile, read-out: minimum inhibitory concentration (MIC)

In the case of `CCCCCCCCCCCC1CC(=O)N2CCCC2C(=O)NC(CO)C(=O)N2CCCC2C(=O)NC(CCCNC(=N)N)C(=O)NC(C(O)C(=O)O)C(=O)NC(CO)C(=O)N2CCC(O)C2C(=O)NC(C(O)C(=O)O)C(=O)O1` (stereo not drawn) [Bu-2517] (PSPR[ξAsp(3ξ-OH)]S[X1][ξAsp(3ξ-OH)]; linker N-C via X2; configuration not given here), the “minimum inhibitory concentration (MIC)” value [1] is reported as 1.6 µg/mL (≈ 1.42 µM), the “minimum inhibitory concentration (MIC)” value (Micrococcus flavus D-12) is reported as under 0.05 µg/mL and the “minimum inhibitory concentration (MIC)” value [2] is reported as 1.6 µg/mL (≈ 1.42 µM). The “minimum inhibitory concentration (MIC)” value [3] was 3.1 µg/mL (≈ 2.75 µM), the “minimum inhibitory concentration (MIC)” value [4] was 1.6 µg/mL (≈ 1.42 µM) and the “minimum inhibitory concentration (MIC)” value [5] was over 100 µg/mL. For the same compound, the “minimum inhibitory concentration (MIC)” value [6] was 1.6 µg/mL (≈ 1.42 µM), the “minimum inhibitory concentration (MIC)” value (Escherichia coli NIHJ) was over 100 µg/mL and the “minimum inhibitory concentration (MIC)” value [7] was 0.8 µg/mL (≈ 0.71 µM). The “minimum inhibitory concentration (MIC)” value [8] was 25 µg/mL (≈ 22.2 µM), the “minimum inhibitory concentration (MIC)” value [9] was 1.6 µg/mL (≈ 1.42 µM) and the “minimum inhibitory concentration (MIC)” value ([10]; Bacillus anthracis IID-115, Mueller-Hinton agar, inoculum 10^4) was 0.8 µg/mL (≈ 0.71 µM). For the same compound, the “minimum inhibitory concentration (MIC)” value [11] was 3.1 µg/mL (≈ 2.75 µM), the “minimum inhibitory concentration (MIC)” value ([12]; Clostridium perfringens A9635, GAM agar medium, inoculum 10^7-10^8) was 1.6 µg/mL (≈ 1.42 µM) and the “minimum inhibitory concentration (MIC)” value [13] was 1.6 µg/mL (≈ 1.42 µM). The “minimum inhibitory concentration (MIC)” value [14] was 1.6 µg/mL (≈ 1.42 µM), the “minimum inhibitory concentration (MIC)” value [15] was 3.1 µg/mL (≈ 2.75 µM) and the “minimum inhibitory concentration (MIC)” value [16] was 1.6 µg/mL (≈ 1.42 µM). The “minimum inhibitory concentration (MIC)” value [17] was over 100 µg/mL, the “minimum inhibitory concentration (MIC)” value [18] was 1.6 µg/mL (≈ 1.42 µM) and the “minimum inhibitory concentration (MIC)” value (Proteus vulgaris A9436) was over 100 µg/mL. For the same compound, the “minimum inhibitory concentration (MIC)” value [19] was 0.8 µg/mL (≈ 0.71 µM), the “minimum inhibitory concentration (MIC)” value [20] was over 100 µg/mL and the “minimum inhibitory concentration (MIC)” value [21] was 1.6 µg/mL (≈ 1.42 µM). The “minimum inhibitory concentration (MIC)” value (Proteus mirabilis A9554) was over 100 µg/mL, the “minimum inhibitory concentration (MIC)” value [22] was 1.6 µg/mL (≈ 1.42 µM) and the “minimum inhibitory concentration (MIC)” value [23] was over 100 µg/mL.
`O=C(N[C@H](CO)[C@H](O)c1ccc([N+](=O)[O-])cc1)C(Cl)Cl` [Chloramphenicol] showed an MIC [1, 24] of 3.1 µg/mL (≈ 9.59 µM), an MIC (Micrococcus flavus D-12; D12, read-out: minimum inhibitory concentration (MIC)) of 1.6 µg/mL (≈ 4.95 µM) and an MIC [2, 24] of 50 µg/mL (≈ 155 µM). The MIC [3, 24] was 3.1 µg/mL (≈ 9.59 µM), the MIC [4, 24] was 3.1 µg/mL (≈ 9.59 µM) and the MIC [5, 24] was 6.3 µg/mL (≈ 19.5 µM). It also gave an MIC [6, 24] of 6.3 µg/mL (≈ 19.5 µM), an MIC (Escherichia coli NIHJ; [24]) of 0.8 µg/mL (≈ 2.48 µM) and an MIC [7, 24] of 1.6 µg/mL (≈ 4.95 µM). The MIC ([8]; A209281, read-out: minimum inhibitory concentration (MIC)) was 3.1 µg/mL (≈ 9.59 µM), the MIC [9, 24] was 3.1 µg/mL (≈ 9.59 µM) and the MIC ([10]; Bacillus anthracis, IID115, read-out: minimum inhibitory concentration (MIC)) was 3.1 µg/mL (≈ 9.59 µM). It also gave an MIC [11, 24] of 3.1 µg/mL (≈ 9.59 µM), an MIC ([12]; Clostridium perfringens, A9635, read-out: minimum inhibitory concentration (MIC)) of 3.1 µg/mL (≈ 9.59 µM) and an MIC [13, 24] of 6.3 µg/mL (≈ 19.5 µM). The MIC [14, 25] was 3.1 µg/mL (≈ 9.59 µM), the MIC [15, 24] was 6.3 µg/mL (≈ 19.5 µM) and the MIC [16, 25] was 3.1 µg/mL (≈ 9.59 µM). It also gave an MIC [17, 24] of 1.6 µg/mL (≈ 4.95 µM), an MIC [18, 24] of 50 µg/mL (≈ 155 µM) and an MIC (Proteus vulgaris A9436; [24]) of 3.1 µg/mL (≈ 9.59 µM). It also gave an MIC ([19]; Cutibacterium acnes, read-out: minimum inhibitory concentration (MIC)) of 0.4 µg/mL (≈ 1.24 µM), an MIC ([20]; D11, read-out: minimum inhibitory concentration (MIC)) of 1.6 µg/mL (≈ 4.95 µM) and an MIC ([21]; Gottschalkia acidurici, read-out: minimum inhibitory concentration (MIC)) of 6.3 µg/mL (≈ 19.5 µM). It also gave an MIC (Proteus mirabilis A9554; [24]) of 12.5 µg/mL (≈ 38.7 µM), an MIC [22, 24] of 1.6 µg/mL (≈ 4.95 µM) and an MIC [23, 24] of 3.1 µg/mL (≈ 9.59 µM).
